Patent publication US9957252B2, “Metalloenzyme inhibitor compounds as fungicides” (Dow AgroSciences LLC, priority 2014, dated 2018)
Read-outs that look alike come from different tables or passages of the source.

Key:
[1] = system: standard laboratory SEPTTR isolate (SI SEPTTR); Mycosphaerella graminicola; Anamorph: Septoria tritici; test: Leaf blotch of wheat fungicidal activity, Type A assay (technical grade in acetone/water with Triton X-100, booth sprayer), standard laboratory isolate; assay type: in vivo, Mycosphaerella graminicola on wheat plants (variety Yuma); details: Zymoseptoria tritici, 24 h, 1 Day Protectant, wheat seedlings (Yuma), read-out: Disease control, SI SEPTTR Type A Assay (50 ppm) 1DP
Protocol: (§1) Evaluation of Fungicidal Activity: Leaf Blotch of Wheat (Mycosphaerella graminicola; Anamorph: Septoria tritici; Bayer code SEPTTR):
(§2) For Type A assays, technical grades of the experimental fungicides in Table 4 below were dissolved in acetone, and then mixed with nine volumes of water containing 110 ppm Triton X-100. The fungicide solutions were applied onto wheat seedlings using an automated booth sprayer. For Type B assays, emulsifiable concentrate (EC) formulations of technical grades of experimental fungicides in Table 4 below were prepared at 10% (w/v), and then mixed with 150 volumes of 0.1% Trycol 5941. The fungicide solutions were applied onto wheat seedlings using an automated track sprayer at 200 L/ha. All sprayed plants were allowed to air dry prior to further handling.
(§3) Wheat plants (variety Yuma) were grown from seed in a greenhouse in 50% mineral soil/50% soil-less Metro mix until the first leaf was fully emerged, with 7-10 seedlings per pot. Prior to or after application of experimental fungicides, plants were inoculated either with spores of a standard laboratory SEPTTR isolate (SI SEPTTR) or with spores from a SEPTTR field isolate collected from Wellsbourne, England in 2012 (FI SEPTTR). After inoculation, the plants were kept for 3 days at 20° C. in 100% relative humidity (one day in a dark dew chamber followed by two days in a lighted dew chamber). Plants were then transferred to a 20° C. greenhouse for disease development. When disease symptoms were fully expressed on untreated plants, infection levels on treated plants were assessed on a scale of 0 to 100 percent disease severity. Percent disease control was calculated using the ratio of disease severity on treated plants relative to untreated plants.

[2] = Leaf blotch of wheat fungicidal activity, Type B assay (10% EC formulation in 0.1% Trycol 5941, track sprayer 200 L/ha), field isolate; assay type: in vivo, Mycosphaerella graminicola on wheat plants (variety Yuma); details: Zymoseptoria tritici, 72 h, field isolate (Wellsbourne, England 2012), wheat seedlings (Yuma)
Protocol: as §1, §2, §3

[3] = 3 Day Curative, read-out: Disease control, FI SEPTTR Type B Assay (100 g/ha) 3DC
[4] = 3 Day Protectant, read-out: Disease control, FI SEPTTR Type B Assay (100 g/ha) 3DP

SMILES	pest or weed control at 50 ppm [1]	pest or weed control at 100 g/ha [2, 3]	pest or weed control at 100 g/ha [2, 4]
Cc1cc(-c2ccc(OC(F)(F)F)cc2F)ccc1C(O)(c1cncnc1)C(C)(C)C (stereo not drawn) [Compound 41]	80 to 100%	–	–
CC(C)(C)C(O)(c1cncnc1)c1ccc(-c2ccccc2)cc1Cl (stereo not drawn) [Compound 27]	80 to 100%	–	–
CC(C)(C)C(O)(c1cncnc1)c1ccc(-c2ccc(C3(C#N)CC3)cc2F)cc1Cl (stereo not drawn) [Compound 106]	–	60 to 79%	80 to 100%
Cc1cc(OC(F)(F)F)ccc1-c1ccc(C(O)(c2cccnc2)C(C)(C)C)cc1 (stereo not drawn) [Compound 63]	80 to 100%	–	–
COC(c1cncnc1)(c1ccc(-c2ccc(OC(F)(F)F)cc2C)cc1F)C(C)(C)C (stereo not drawn) [Compound 80]	–	80 to 100%	80 to 100%
Cc1cc(-c2ccc(C(C)(C)C#N)cc2F)ccc1C(O)(c1cncnc1)C(C)(C)C (stereo not drawn) [Compound 91]	–	80 to 100%	80 to 100%
COc1ncncc1C(O)(c1ccc(-c2ccc(OC(F)(F)F)cc2C)cc1F)C(C)(C)C (stereo not drawn) [Compound 88]	–	80 to 100%	80 to 100%
CC(C)(C)c1ccc(-c2ccc(C(O)(c3cccnc3)C(C)(C)C)cc2)cc1 (stereo not drawn) [Compound 62]	80 to 100%	–	–
COc1cc(-c2ccc(C(C)(C)C)cc2)ccc1C(O)(c1cncnc1)C(C)(C)C (stereo not drawn) [Compound 51]	80 to 100%	–	–
CC(C)(C#N)c1ccc(-c2ccc(C(O)(c3cncnc3)C(C)(C)C)c(Cl)c2)c(F)c1 (stereo not drawn) [Compound 95]	–	80 to 100%	80 to 100%
Cc1cc(OC(F)(F)F)ccc1-c1ccc(C(O)(c2cncnc2)C(C)(C)C)c(F)c1 (stereo not drawn) [Compound 74]	–	80 to 100%	80 to 100%
COc1ccc(-c2ccc(C(O)(c3cncnc3)C(C)(C)C)cc2)cc1 (stereo not drawn) [Compound 13]	80 to 100%	–	–
CC(C)(C)c1ccc(-c2ccc(C(O)(c3cccnc3)C(C)(C)C)c(Cl)c2)cc1 (stereo not drawn) [Compound 72]	–	60 to 79%	80 to 100%
CC(C)(C)C(O)(c1cccnc1)c1ccc(-c2ccc(OC(F)F)cc2)cc1Cl (stereo not drawn) [Compound 66]	–	< 40%	80 to 100%
COC(c1cncnc1)(c1ccc(-c2ccc(OC(F)(F)F)cc2F)cc1F)C(C)(C)C (stereo not drawn) [Compound 81]	–	80 to 100%	80 to 100%
CC(C)(C#N)c1ccc(-c2ccc(C(O)(c3cncnc3)C(C)(C)C)c(Cl)c2)cc1 (stereo not drawn) [Compound 86]	–	60 to 79%	80 to 100%
COc1cc(-c2ccc(C3(C#N)CC3)cc2)ccc1C(O)(c1cncnc1)C(C)(C)C (stereo not drawn) [Compound 49]	80 to 100%	–	–
CC(C)(C)C(O)(c1ccc(-c2ccccc2)cc1)c1cncnc1 (stereo not drawn) [Compound 5]	80 to 100%	–	–
CC(C)(C)C(O)(c1cncnc1)c1ccc(-c2ccc(OC(F)(F)F)cc2F)cc1Cl (stereo not drawn) [Compound 104]	–	80 to 100%	80 to 100%
COC(c1cncnc1)(c1ccc(-c2ccc(OCC(F)(F)F)cc2)cc1F)C(C)(C)C (stereo not drawn) [Compound 83]	–	80 to 100%	80 to 100%
Cc1cc(-c2ccc(OC(F)(F)F)cn2)ccc1C(O)(c1cncnc1)C(C)(C)C (stereo not drawn) [Compound 94, 2,2-dimethyl-1-(2-methyl-4-(5-(trifluoromethoxy)pyridin-2-yl)phenyl)-1-(pyrimidin-5-yl)propan-1-ol]	–	80 to 100%	80 to 100%
Cc1cc(-c2ccc(OC(F)(F)F)cc2)ccc1C(O)(c1cncnc1)C(C)(C)C (stereo not drawn) [Compound 34]	80 to 100%	–	–
COc1cc(-c2ccc(OC(F)(F)F)cc2C)ccc1C(O)(c1cncnc1)C(C)(C)C (stereo not drawn) [Compound 52]	60 to 79%	–	–
CC(C)(C)C(O)(c1cncnc1)c1ccc(-c2ccc(C3(C#N)CC3)cc2F)cc1F (stereo not drawn) [Compound 97]	–	80 to 100%	80 to 100%
CC(C)(C)C(O)(c1cccnc1)c1ccc(-c2ccc(SC(F)(F)F)cc2)cc1Cl (stereo not drawn) [Compound 65]	–	80 to 100%	80 to 100%

SMILES	pest or weed control at 50 ppm [1]	pest or weed control at 100 g/ha [2, 3]	pest or weed control at 100 g/ha [2, 4]
CC(C)(C#N)c1ccc(-c2ccc(C(O)(c3cccnc3)C(C)(C)C)c(Cl)c2)cc1 (stereo not drawn) [Compound 71]	–	80 to 100%	80 to 100%
CC(C)(C)C(O)(c1cncnc1)c1ccc(-c2ccc(OCC(F)(F)F)nc2)cc1F (stereo not drawn) [Compound 76]	–	80 to 100%	60 to 79%
Cc1cc(C(C)(C)C#N)ccc1-c1ccc(C(O)(c2cncnc2)C(C)(C)C)c(F)c1 (stereo not drawn) [Compound 105]	–	80 to 100%	80 to 100%
CC(C)(C)C(O)(c1cccnc1)c1ccc(-c2ccc(C3(C#N)CC3)cc2)cc1Cl (stereo not drawn) [Compound 70]	–	80 to 100%	80 to 100%
CC(C)(C)C(O)(c1cncnc1)c1ccc(-c2ccc(C3(C#N)CC3)cc2)cc1Cl (stereo not drawn) [Compound 89]	–	60 to 79%	80 to 100%
CC(C)(C#N)c1ccc(-c2ccc(C(O)(c3cncnc3)C(C)(C)C)c(F)c2)c(F)c1 (stereo not drawn) [Compound 101]	–	80 to 100%	80 to 100%
CC(C)(C)C(O)(c1cncnc1)c1ccc(-c2ccc(OC(F)(F)F)cn2)cc1F (stereo not drawn) [Compound 102]	–	80 to 100%	80 to 100%
COc1ncncc1C(O)(c1ccc(-c2ccc(OC(F)(F)F)cc2)cc1F)C(C)(C)C (stereo not drawn) [Compound 96]	–	80 to 100%	80 to 100%
Cc1cc(OC(F)(F)F)ccc1-c1ccc(C(O)(c2cccnc2)C(C)(C)C)c(Cl)c1 (stereo not drawn) [Compound 73]	–	40 to 59%	80 to 100%
Cc1cc(-c2ccc(C3(C#N)CC3)cc2F)ccc1C(O)(c1cncnc1)C(C)(C)C (stereo not drawn) [Compound 103]	–	80 to 100%	80 to 100%
CC(C)(C)C(O)(c1cccnc1)c1ccc(-c2ccc(OC(F)(F)F)cc2)cc1Cl (stereo not drawn) [Compound 64]	–	80 to 100%	80 to 100%
CC(C)(C)C(O)(c1cccnc1)c1ccc(-c2ccc(OCC(F)(F)F)cc2)cc1Cl (stereo not drawn) [Compound 67]	–	80 to 100%	80 to 100%
CC(C)(C)C(O)(c1cncnc1)c1ccc(-c2ccc(OC(F)(F)F)cc2F)cc1F (stereo not drawn) [Compound 78]	–	80 to 100%	80 to 100%
COc1ncncc1C(O)(c1ccc(-c2ccc(OCC(F)(F)F)nc2)cc1F)C(C)(C)C (stereo not drawn) [Compound 87]	–	80 to 100%	80 to 100%
COC(c1cncnc1)(c1ccc(-c2ccc(C(C)(C)C#N)cc2)cc1F)C(C)(C)C (stereo not drawn) [Compound 85]	–	80 to 100%	80 to 100%
Cc1cc(OC(F)(F)F)ccc1-c1ccc(C(O)(c2cncnc2)C(C)(C)C)c(Cl)c1 (stereo not drawn) [Compound 99]	–	80 to 100%	80 to 100%
COc1ncncc1C(O)(c1ccc(-c2ccc(C3(C#N)CC3)cc2)cc1F)C(C)(C)C (stereo not drawn) [Compound 100]	–	80 to 100%	80 to 100%
CC(C)(C)C(O)(c1cccnc1)c1ccc(-c2ccc(C#N)cc2)cc1Cl (stereo not drawn) [Compound 68]	–	60 to 79%	80 to 100%
CC(C)(C)C(O)(c1cncnc1)c1ccc(-c2ccc(C3(C#N)CC3)cc2)cc1F (stereo not drawn) [Compound 75]	–	80 to 100%	80 to 100%
CC(C)(C)C(O)(c1cccnc1)c1ccc(-c2ccc(CC#N)cc2)cc1Cl (stereo not drawn) [Compound 69]	–	40 to 59%	80 to 100%
COC(c1cncnc1)(c1ccc(-c2ccc(OCC(F)(F)F)nc2)cc1F)C(C)(C)C (stereo not drawn) [Compound 82]	–	80 to 100%	80 to 100%
CC(C)(C#N)c1ccc(-c2ccc(C(O)(c3cncnc3)C(C)(C)C)c(F)c2)cc1 (stereo not drawn) [Compound 77]	–	80 to 100%	80 to 100%
COC(c1cncnc1)(c1ccc(-c2ccc(OC(F)(F)F)cc2)cc1F)C(C)(C)C (stereo not drawn) [Compound 79, 5-(1-(3-fluoro-4′-(trifluoromethoxy)-[1,1′-biphenyl]-4-yl)-1-methoxy-2,2-dimethylpropyl)pyrimidine]	–	80 to 100%	80 to 100%
COc1ncncc1C(O)(c1ccc(-c2ccc(C(C)(C)C#N)cc2)cc1F)C(C)(C)C (stereo not drawn) [Compound 92]	–	80 to 100%	80 to 100%
COC(c1cncnc1)(c1ccc(-c2ccc(C3(C#N)CC3)cc2)cc1F)C(C)(C)C (stereo not drawn) [Compound 84]	–	80 to 100%	80 to 100%
